Experimental data taken from patent US20130261114A1, “COMPOUNDS USEFUL AS INHIBITORS OF CHOLINE KINASE” (priority 2011, published 2013).
Where “and” joins values, the source holds several entries; their conditions need not be identical. Identical values can stand only once.

Molecular target: T1, Choline Kinase alpha enzyme (Homo sapiens, UniProt P35790)
T1 construct: hChoKα1 (M1-V457) (NP_001268); GST (N); made in house; host or cells: E. coli BL21(DE3)
Experiment: Choline Kinase Alpha Inhibition Assay
Assay type: biochemical
Details: 20 nM enzyme, 200 μM choline chloride, 400 μM ATP, 25° C., coupled NADH absorbance at 340 nm; read-out: IC50 values (inhibiting Choline Kinase Alpha)
Description: An assay buffer solution was prepared which consisted of 100 mM Tris-HCl (pH 7.5), 100 mM KCl, and 10 mM MgCl2. An enzyme buffer containing reagents to final assay concentrations of 290 μM NADH, 2.4 mM phosphoenolpyruvate, 60 μg/mL pyruvate kinase, 20 μg/mL lactate dehydrogenase, 200 μM choline chloride substrate and 20 nM Choline Kinase alpha enzyme was prepared in assay buffer. To 32 μL of this enzyme buffer, in a 96 well plate, was added 2 μL of VRT stock solution in DMSO. The mixture was allowed to equilibrate for 10 mins at 25° C. The enzyme reaction was initiated by the addition of 32 μL stock ATP solution prepared in assay buffer to a final assay concentration of 400 μM. Initial rate data was determined from the rate of change of absorbance at 340 nm (corresponding to stoichiometric consumption of NADH) using a Molecular Devices Spectramax plate reader (Sunnyvale, Calif.) over 15 mins at 25° C. For each IC50 determination, 12 data points covering the VRT concentration range of 0-100 μM were obtained in duplicate (DMSO stocks were prepared from an initial 10 mM VRT stock with subsequent 1:2.5 serial dilutions). IC50 values were calculated from initial rate data using the Prism software package (Prism 4.0a, Graphpad Software, San Diego, Calif.).
hChoKα1 (M1-V457) (NP_001268) was codon optimized for E. coli and cloned into a modified pGEX-2T vector. Recombinant GST-tagged ChoKα1 protein was produced in E. coli strain BL21(DE3). After growing cell cultures at 37° C. until the OD600=1, the cultures were induced with 1 mM IPTG for 16 h at 30° C. and the cells were harvested as a pellet (8500 rpm, 4° C., 20 min). The protein was purified using glutathione affinity purification followed by size exclusion via Superdex-200 26/60 (GE Healthcare). See Malito, Enrico et. al., “Journal of Molecular Biology”, Volume 364, Issue 2, pages 136-151 (November 2006).

T1 sequence (P35790 whole entry): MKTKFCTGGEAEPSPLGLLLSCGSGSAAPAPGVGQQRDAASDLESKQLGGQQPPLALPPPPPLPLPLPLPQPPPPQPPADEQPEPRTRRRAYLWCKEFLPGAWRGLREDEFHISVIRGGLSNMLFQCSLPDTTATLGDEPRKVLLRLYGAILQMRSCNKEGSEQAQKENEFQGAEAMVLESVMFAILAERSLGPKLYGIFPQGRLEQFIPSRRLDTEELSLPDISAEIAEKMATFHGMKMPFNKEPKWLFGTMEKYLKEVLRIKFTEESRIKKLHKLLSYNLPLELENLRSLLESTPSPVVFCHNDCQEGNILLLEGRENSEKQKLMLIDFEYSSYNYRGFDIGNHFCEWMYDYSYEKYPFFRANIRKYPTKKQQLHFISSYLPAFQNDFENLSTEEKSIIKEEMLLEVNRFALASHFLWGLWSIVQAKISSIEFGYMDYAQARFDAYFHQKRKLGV

How did the IC50 turn out when `Cc1ccccc1C(O)(Cc1ccccc1)C1CN2CCC1CC2` (single isomer, unassigned) [Compound I-78, 1-(o-tolyl)-2-phenyl-1-quinuclidin-3-yl-ethanol] was run?
Its IC50 is less than 100 nM.

With `Cc1ccccc1C(O)(Cc1ccccc1)C1CN2CCC1CC2` (single isomer, unassigned) [Compound I-84, 1-(o-tolyl)-2-phenyl-1-quinuclidin-3-yl-ethanol] as the molecule, how does the IC50 read?
The IC50 was 1000 to 75000 nM.

How did the IC50 turn out when `CN(C)c1ccc(CCC(O)(c2ccc(N(C)C)cc2)C2CN3CCC2CC3)cc1` (centres unmarked) [Compound I-17] was run?
The IC50 was 1000 to 75000 nM.

How did the IC50 turn out when `CN(C)c1ccc(C(O)(c2ccc(N(C)C)cc2)C2CN3CCC2CC3)cc1` (centres unmarked) [Compound I-79] was run?
Its IC50 is 100 to 1000 nM and 1000 to 75000 nM.

How did the IC50 turn out when `OC(Cc1ccccc1)(c1ccccc1)C1CN2CCC1CC2` (centres unmarked) [Compound I-80] was run?
Its IC50 is 100 to 1000 nM.

How did the IC50 turn out when `OC(c1ccc(Cl)s1)(c1ccc(Cl)s1)C1CN2CCC1CC2` (centres unmarked) [Compound I-81] was run?
Its IC50 is 100 to 1000 nM.

How did the IC50 turn out when `OC(c1cccc(Cl)c1)(c1cccc(Cl)c1)C1CN2CCC1CC2` (centres unmarked) [Compound I-82] was run?
The IC50 was 1000 to 75000 nM.

How did the IC50 turn out when `OC(Cc1ccccc1)(Cc1ccccc1)C1CN2CCC1CC2` (centres unmarked) [Compound I-83] was run?
The IC50 was 1000 to 75000 nM.

Which IC50 does the source give for `OC(c1ccccc1)(c1ccccc1Cl)C1C[N@]2CC[C@@H]1CC2` (some centres unmarked) [Compound I-85] here?
Its IC50 is 100 to 1000 nM.

Which IC50 does the source give for `OC(c1ccccc1)(c1ccc(Cl)cc1)C1C[N@]2CC[C@@H]1CC2` (some centres unmarked) [Compound I-86] here?
The IC50 was 100 to 1000 nM.

Which IC50 does the source give for `OC(c1ccccc1)(c1ccccc1)C1CN2CCC1CC2` (centres unmarked) [Compound I-87] here?
Its IC50 is 100 to 1000 nM.
